Data reported in patent US12414958B2, “Medicament and use thereof for treating bacterial infections involving biofilm” (Debiopharm International S.A., priority 2019, dated 2025).

Tested on: ATCC 43300 MRSA strain
Assay: In vivo murine model of catheter associated infection, 24 h and 72 h MRSA biofilms
Set-up: species or system Staphylococcus aureus
Conditions: for Log10 CFU/g of catheter (D 6) Mean ± SEM / ΔLog10 CFU/g of catheter from (D 1) Mean ± SEM: 5.5-day treatment (D1-D6); for Log10 CFU/g of catheter (D 6) Mean ± SEM / ΔLog10 CFU/g of catheter from (D 1) Mean ± SEM / Log10 CFU/g of catheter (D 8) Mean ± SEM / ΔLog10 CFU/g of catheter from (D 3) Mean ± SEM: BALB/c mice; for Log10 CFU/g of catheter (D 6) Mean ± SEM / Log10 CFU/g of catheter (D 8) Mean ± SEM: doses as in Table 2; for ΔLog10 CFU/g of catheter from (D 1) Mean ± SEM: change from baseline D 1; for CR (%) cure rate / mean reduction of the initial MRSA load: 5.5-day treatment; for CR (%) cure rate: percentage of mice without catheter-associated bacteria; for Log10 CFU/g of catheter (D 8) Mean ± SEM / ΔLog10 CFU/g of catheter from (D 3) Mean ± SEM: 5.5-day treatment (D3-D8); for ΔLog10 CFU/g of catheter from (D 3) Mean ± SEM: change from baseline D 3; for mean reduction of the initial MRSA load: given as positive reduction
Description: Two experimental settings were used in this study to evaluate the treatment efficacies against early (24h) and/or mature (72h) MRSA catheter formed biofilms. Briefly, mice were anaesthetised by an IP injection of about 120 μl a mix of ketamine (50 mg/kg) and xylazine (10 mg/kg) (4 mL ketamine+2 mL xylazine+10 mL saline). Flank on the right side was shaved and then disinfected by 3 consecutive applications of betadine. A cutaneous and then subcutaneous (SC) incisions of 0.2 cm were made under sterile conditions and a 1 cm segment of polyurethane catheter (Ref. No. ES-04730 Arrow international) cut into 2 longitudinal fragments was inserted SC (into the incision and then pushed further under the skin, about 2 cm away from the incision). The inoculation was done simultaneously by placing 50 μl of the bacterial culture onto the catheter (10^6 CFU of ATCC 43300 MRSA strain). The incision was stitched up and disinfected. The day of the infection was referred to as Day0 (D0). To ensure that the study was conducted in sterile conditions from the start to the end of the experiment, non-infected mice (sentinel group) were included. Treatments started either on D1 or D3 post infection, corresponding to early (24h) or more mature (72h) catheter formed biofilms, respectively, and lasted for 5.5 days (D1-D6) or (D3-D8). In both 24 h and 72h biofilm settings, two groups of infected non-treated animals (Vehicle controls) were evaluated for bacterial counts: at baseline (24h or D1 [for 24-h biofilm] and 72h or D3 [for 72-h biofilm] post infection, i.e. time points corresponding to treatments initiations) and at the termination of treatment duration (D6 [for 24-h biofilm] and D8 [for 72-h biofilm] post infection). Post treatment CFUs were counted on D6 or D8 and results were expressed as Log10 CFU/g of catheter (Mean±SEM). The limit of detection was determined as being 1 Log10 CFU/g of catheter. Changes of CFU/g of catheter (Δ Log10) from the baseline (D1 or D3 for 24-h and 72-h biofilm, respectively) and cure rates (corresponding to the percentage of mice without catheter-associated bacteria within a given treatment group) were also calculated. In vivo induction of antibiotic-resistant bacteria was analysed for all tested antibiotics.
Antibiotics doses were selected according to the effective doses in animals, which approximated the therapeutic human equivalent doses (HED) (Table 1).
Mice received antibiotics on D1, D2, D3, D4, D5 and D6 (only one administration at D6) or D3, D4, D5, D6, D7 and D8 (only one administration at D8). All antibiotics were administered BID IP, except Debio 1450 BES and Vancomycin, which were respectively given PO and SC. Daptomycin was tested as a once daily regimen to avoid tolerability issues. The antibiotics daily dosing was performed with a 10-12 hours interval between the two administrations. For combination therapy, antibiotics were administered simultaneously every 10-12 hours (the time required between the injection of the first antibiotic and the injection of the second antibiotic was less than 30 seconds per mouse).
In each sub-study, animals were randomly assigned to the antibiotic therapies or vehicle controls groups. Dose volumes were calculated according to individual body weight of each animal.
After blood collection, animals were sacrificed by cervical dislocation following anaesthesia. Two fragments of catheter per mouse were collected and were used for bacterial enumeration after sonication. Each fragment of catheter was individually washed under aseptic conditions in an Eppendorf tube (3 successive washing steps with 300 μl sterile saline). After the last wash, the catheter was suspended in 1 mL sterile saline, put in an ultrasonic bath (Advantage Lab) for 3 minutes at room temperature before being vigorously vortexed in order to detach all adherent bacteria from the catheter. Several successive dilutions of this suspension (undiluted, 10-2, […]) were cultured onto Chapman agar plates for 48 h at 37° C. […]

CCCCCCCCCC(=O)N[C@@H](Cc1c[nH]c2ccccc12)C(=O)N[C@H](CC(N)=O)C(=O)N[C@@H](CC(=O)O)C(=O)N[C@@H]1C(=O)NCC(=O)N[C@@H](CCCN)C(=O)N[C@@H](CC(=O)O)C(=O)N[C@H](C)C(=O)N[C@@H](CC(=O)O)C(=O)NCC(=O)N[C@H](CO)C(=O)N[C@@H]([C@H](C)CC(=O)O)C(=O)N[C@@H](CC(=O)c2ccccc2N)C(=O)O[C@@H]1C [Daptomycin]
Log10 CFU/g of catheter (D 6) Mean ± SEM (Biofilm (24 h)): 3.02 ± 0.110 Log10 CFU/g of catheter | ΔLog10 CFU/g of catheter from (D 1) Mean ± SEM (Biofilm (24 h)): −3.64 ± 0.110 Log10 CFU/g of catheter | CR (%) cure rate (Biofilm (24 h)): 25% | Log10 CFU/g of catheter (D 8) Mean ± SEM (Biofilm (72 h)): 5.42 ± 0.104 Log10 CFU/g of catheter | ΔLog10 CFU/g of catheter from (D 3) Mean ± SEM (Biofilm (72 h)): −1.37 ± 0.104 Log10 CFU/g of catheter | CR (%) cure rate (Biofilm (72 h)): 0%

Cc1c(CN(C)C(=O)/C=C/c2cnc3c(c2)CCC(=O)N3COP(=O)(O)O)oc2ccccc12 [Debio 1450, {6-[(1E)-3-{methyl [(3-methyl-1-benzofuran-2-yl)methyl]amino}-3-oxoprop-1-en-1-yl]-2-oxo-3,4-dihydro-1,8-naphthyridin-1 (2H)-yl} methyl dihydrogen phosphate]
Log10 CFU/g of catheter (D 6) Mean ± SEM (Biofilm (24 h)): 4.31 ± 0.109 Log10 CFU/g of catheter | ΔLog10 CFU/g of catheter from (D 1) Mean ± SEM (Biofilm (24 h)): −2.35 ± 0.109 Log10 CFU/g of catheter | CR (%) cure rate (Biofilm (24 h)): 8% | Log10 CFU/g of catheter (D 8) Mean ± SEM (Biofilm (72 h)): 5.75 ± 0.069 Log10 CFU/g of catheter | ΔLog10 CFU/g of catheter from (D 3) Mean ± SEM (Biofilm (72 h)): −1.03 ± 0.069 Log10 CFU/g of catheter | CR (%) cure rate (Biofilm (72 h)): 0%

CO[C@H]1/C=C/O[C@@]2(C)Oc3c(C)c(O)c4c(O)c(c(/C=N/N5CCN(C)CC5)c(O)c4c3C2=O)NC(=O)/C(C)=C\C=C\[C@H](C)[C@H](O)[C@@H](C)[C@@H](O)[C@@H](C)[C@H](OC(C)=O)[C@@H]1C [Rifampicin]
mean reduction of the initial MRSA load (24 h biofilm): 4.17±0.072 Log10 CFU/g of catheter | mean reduction of the initial MRSA load (72 h biofilm): 2.98±0.113 Log10 CFU/g of catheter | Log10 CFU/g of catheter (D 6) Mean ± SEM (Biofilm (24 h)): 2.50 ± 0.072 Log10 CFU/g of catheter | ΔLog10 CFU/g of catheter from (D 1) Mean ± SEM (Biofilm (24 h)): −4.17 ± 0.072 Log10 CFU/g of catheter | CR (%) cure rate (Biofilm (24 h)): 39% | Log10 CFU/g of catheter (D 8) Mean ± SEM (Biofilm (72 h)): 3.80 ± 0.113 Log10 CFU/g of catheter | ΔLog10 CFU/g of catheter from (D 3) Mean ± SEM (Biofilm (72 h)): −2.98 ± 0.113 Log10 CFU/g of catheter | CR (%) cure rate (Biofilm (72 h)): 8%
